Assay results from paper PMC10454726 (International Journal of Molecular Sciences, 2023).

What was measured:
[1] = system: streptozotocin-induced diabetic rats; assay: Serum determinations (insulin, cholesterol) in streptozotocin-induced diabetic rats; assay type: in vivo, Wistar rat; conditions: 14 days, FC-114 51.3 mg/kg/day
Procedure: To obtain serum from each rat under anesthesia, a 10 mL blood sample was taken via cardiac puncture of the exposed heart. After being left at room temperature for 10 min, the blood samples were centrifuged at 2500 rpm (1200× g) for 10 min to obtain the serum. The resulting serum was then frozen at −70 °C until needed. Prior to usage, the serum samples were thawed at room temperature.
The diabetic animals in group 2 (untreated) were given 4% v/v aqueous EtOH solution (vehicle of treatments) in a volume of 6.5 mL/kg body weight. The other groups (3–7) received different treatments for 14 days (weeks 5 to 7). […] All of the treatments were at equimolar doses of PIO and adjusted to the weekly weight of each rat. […] The commercial PIO tablet (30 mg) was crushed in 7.5 mL of vehicle and given to each animal in 4.0 mg/mL of suspension. The FC-114 and FC-122 suspensions were created at 6.2 and 6.0 mg/mL, respectively. The commercial acarbose tablet (50 mg) was crushed in 7.5 mL of the vehicle and given to each animal in a suspension of 6.6 mg/mL. Each suspension was used within 2 days of its preparation, and the administration volume was near to 2.5 mL for each rat.
The blood determinations were carried out using different kits: glucose (1001191, Spinreact, Girona, Spain, 1045), TAG (41032, Spinreact, LIQ557), insulin (RAB09A-1EA-KC, Sigma, 11092020), total cholesterol (41020, Spinreact, LIQ384), and HDL cholesterol (1001095, Spinreact, H166). Mathematically, the c-LDL cholesterol was determined by subtracting the HDL fraction from the total cholesterol.

PTP1B = system: PTP1B; design: method as in PMID 34299651; conditions: cited from earlier work
female Wistar rats = assay: Acute oral toxicity (OECD guideline 425); assay type: in vivo; conditions: for toxic effects at the macroscopic level (necropsy images): 175, 550, and 2000 mg/kg; for AOT (acute oral toxicity): female Wistar rats
Procedure: They were kept in standard polypropylene boxes under controlled temperature (24 ± 4 °C) on a 12 h light/dark cycle and provided conventional food (formula 5001, Rat Chow) and purified water ad libitum. […] At the end of the experiment, the animals were taken to the humanitarian endpoint by the intraperitoneal (ip) administration of 75 mg/kg of sodium pentobarbital to perform a necropsy in the bioterium of FESC, UNAM. During the necropsy, blood serum was extracted to quantify glucose, triacylglycerides, cholesterol, and insulin. The study was conducted based on the guidelines of the Declaration of Helsinki and approved by the Institutional Review Board: Internal Committee for the Care and Use of Experimentation Animals (CICUAE, according to the initials in Spanish, C23_02 on March 2023) of the FESC UNAM (Mexico). It complies with the Mexican norm for this matter (NOM-062-ZOO-1999, Technical Specifications for the Production, Care, and Use of Laboratory Animals, SAGARPA), as well as the Guide for the Care and Use of Laboratory Animals of the National Research Council and National Institutes of Health (NIH Publications No. 8023, revised 1978).
The female Wistar rats (n = 3) were used to obtain the AOT based on the procedures of Guide Number 425 of the Organization for Economic Cooperation and Development (OECD). The rats were closely monitored for 48 h after receiving oral doses of FC-114 or FC-122. Rat 1 received 175 mg/kg, rat 2 received 550 mg/kg, and rat 3 received 2000 mg/kg. They were then observed for 14 days until a necropsy to check for any toxic effects.

PTP1B1–400 = target: T1, PTP1B1–400 (Homo sapiens, UniProt P18031); assay: Enzyme kinetic assay for PTP1B1–400 (pNPP substrate); assay type: biochemical
T1 construct: we performed an enzyme kinetic assay for PTP1B1–400
T1 sequence (P18031 1-400): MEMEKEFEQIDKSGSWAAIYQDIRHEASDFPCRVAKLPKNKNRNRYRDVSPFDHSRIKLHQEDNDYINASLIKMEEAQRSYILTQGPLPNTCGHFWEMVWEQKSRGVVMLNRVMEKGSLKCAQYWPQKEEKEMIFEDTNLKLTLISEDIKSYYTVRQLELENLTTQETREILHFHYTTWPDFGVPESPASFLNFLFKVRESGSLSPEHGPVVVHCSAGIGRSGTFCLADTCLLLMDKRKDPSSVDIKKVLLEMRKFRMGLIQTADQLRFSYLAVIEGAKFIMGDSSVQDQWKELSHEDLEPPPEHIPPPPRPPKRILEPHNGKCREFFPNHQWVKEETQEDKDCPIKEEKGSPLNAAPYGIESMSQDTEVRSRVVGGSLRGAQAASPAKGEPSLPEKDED
Excerpt: As pointed out in this paper’s introduction, we have reported the PTP1B inhibitory activity of FC-114 and FC-122 [53]. […] Nevertheless, the inhibition type of FC-122 remained unknown to date. Therefore, we performed an enzyme kinetic assay for PTP1B1–400 [59, 60, 61] using p-nitrophenyl phosphate (pNPP) as substrate at different concentrations as well as the inhibitor. Figure 2C depicts the double reciprocal plot of Lineweaver-Burk, showing the effect of FC-122 on the PTP1B activity.
The kinetic studies for PTP1B and α-glucosidase were carried out under the same conditions described in the references.

Row | SMILES | HDL levels [1] | calculated LDL cholesterol [1] | serum insulin levels [1] | serum total cholesterol [1] | Inhibition type (PTP1B) (PTP1B) | Ki (PTP1B) | toxic effects at the macroscopic level (necropsy images) (female Wistar rats) | Toxic Effects (female Wistar rats; dose 175 mg/kg oral) | Weight Gain for 2 Weeks (female Wistar rats; dose 175 mg/kg oral) | Toxic Effects (female Wistar rats; dose 550 mg/kg oral) | Weight Gain for 2 Weeks (female Wistar rats; dose 550 mg/kg oral) | Toxic Effects (female Wistar rats; dose 2000 mg/kg oral) | Weight Gain for 2 Weeks (female Wistar rats; dose 2000 mg/kg oral) | AOT (acute oral toxicity) (female Wistar rats) | Inhibition type (PTP1B) (PTP1B1–400; Lineweaver-Burk plot) | Ki (PTP1B1–400; substrate pNPP)
1 | CC1(C)c2[nH]c3ccc(C(F)(F)F)cc3c2C[C@]2(C)[C@H]3C(=O)C=C4[C@@H]5C[C@@](C)(C(=O)O)CC[C@]5(C)CC[C@@]4(C)[C@]3(C)CC[C@@H]12 [FC-114] | without affecting | decreased | dramatically increasing trend | decreased | non-competitive | 3900 nM | No toxic effects were observed | None | 22.8 g | None | 23.4 g | None | 21.5 g | higher than 2000 mg/kg |  | 
2 | Cc1ccc(-n2ncc3c2C(C)(C)[C@@H]2CC[C@]4(C)[C@H](C(=O)C=C5[C@@H]6C[C@@](C)(C(=O)O)CC[C@]6(C)CC[C@]54C)[C@@]2(C)C3)cc1 [FC-122] |  |  |  |  |  |  | No toxic effects were observed | None | 23.5 g | None | 25.2 g | None | 26.4 g | higher than 2000 mg/kg | uncompetitive | 440 nM
